In patent US12398255B2, “Biocompatible crosslinkers for controlled degradation of polymer hydrogels” (Saint Louis University, priority 2020, dated 2025):

Assay: Hydrogel degradation measured by swelling
Format: physicochemical
Conditions: pH 7.4
Procedure: Additionally, degradation was followed by measuring QM as a function of time. MS was measured at specific time points until gels lacked physical integrity. QM was calculated for each time point and normalized to the QM of the non-swollen network at time zero (MG/MD). Initial mesh size (ξ) and crosslink density (vc) were calculated via the Flory-[…] theory.

Degradation Time: 8.0 ± 0.5 days
Substance: PEG-dithiolpropionate [PEG-DD2]
